The record followed here is patent US9642839B2, “Substance having tyrosine kinase inhibitory activity and preparation method and use thereof” (Institute of Radiation Medicine, China Academy of Military …, priority 2013, dated 2017).

The test system of one test is HepG2 cells. Briefly: In vitro antitumor activity, MTS cell proliferation. Type of test: cell-based. To be noted: Homo sapiens, HepG2, hepatocellular cancer, 72 hours.
A further test has as its system A375 cells. The test is described as above. Type of test: cell-based. Particulars: Homo sapiens, A-375, A375, skin cancer, 72 hours.
For another test, the system named is H460 cells. The description is as above. Type of test: cell-based. Particulars: Homo sapiens, NCI-H460, H460, lung cancer, 72 hours.
A further test has as its system L02 cells. Nature of the test: MTS cell proliferation, normal liver cells. Type of test: cell-based. To be noted: Homo sapiens, L02, normal hepatic cells, 72 hours. The procedure: […] After culture at 37° C., 5% CO2 for 72 hours, MTS reagent (Promega Corporation) were added for further culture for 2-4 h.
Test [1] concerns MHCC97-H cells. Nature of the test: In vitro antitumor activity, MTS cell proliferation. In kind it is cell-based, human. To be noted: Homo sapiens, MHCC97H, hepatocellular cancer, 72 hours. How it is done: (§1) Method: 14 cell lines (MKN-45 cells, MHCC97-L cells, MHCC97-H cells, HLE cells, HepG2 cells, 7721 cells, L02 cells, A375 cells, H460 cells, A549 cells, SK-N-SH cells, MCF-7 cells, K562 cells, and Ba/F3-Tpr-Met cells (pre-B cells which are malignantly transformed by the c-Met constitutive active mutant Tpr-Met) were seeded into 96-well plate at 1×10^4 cells/well, and each well was added with 150 μl DMEM medium (purchased from Invitrogen) containing 10% fetal bovine serum (purchased from Hyclone). When cell adherent was observed, different concentrations of 2-indolone derivatives (concentrations at 0.1-10 μM) were added, in addition to the negative control (vehicle control group) and blank control (medium group). After culture at 37° C., 5% CO2 for 72 hours, MTS reagent (Promega Corporation) were added for further culture for 2-4 h.

A further test deals with A549 cells. Described as above. In kind it is cell-based, human. Particulars: Homo sapiens, A549, lung cancer, 72 hours. How it is done:
as §1

A further test relates to MHCC97-L cells. To be noted: MHCC97-L s.c. nude mice; 16 mg/kg intraperitoneal, once every 24 h, 6 administrations; by tumor weight. The procedure:
(§2) Establishment of tumor-bearing models: Tumor cells were cultured in T75 flasks until achieving a logarithmical growth. The cells were trypsinized and DMEM medium containing 10% fetal bovine serum was added to terminate trypsinization. The cells were washed with PBS twice, and suspended. Cell concentration was adjusted to 5×10^7 cells/ml, and 150 μl cell suspension was injected into the right flank of the mice. After inoculation, the tumors in the nude mice were observed every day, and the mice were grouped when the tumors reached a volume of 100 mm^3. Each nude mouse was numbered, and the tumor size was measured. The data was entered into EXCEL for sorting and thus excluding extreme values. Random numbers were generated corresponding to the number of the mice, and the mice were randomly grouped using these random numbers.
(§3) Administration: intraperitoneal injection was used at doses of 4 mg/kg, 8 mg/kg, and 16 mg/kg, respectively. The vehicle control group was injected with the same volume of DMSO. The mice received treatment once every 24 h, and a total of 6 times of administrations were given. During administration, changes of tumor size (length×width×width/2) were monitored and recorded in a real-time manner, and the results were expressed as mean±standard deviation.

Test [2] relates to MHCC97-H cells. Particulars: MHCC97-H s.c. nude mice; 16 mg/kg intraperitoneal, once every 24 h, 6 administrations; by tumor weight. How it is done:
as §2, §3

A word on the IC50: it is the concentration needed to halve the response being measured. A low value points to higher potency. With `Cc1ccccc1NS(=O)(=O)c1ccc2c(c1)/C(=C/c1nc3ccccc3[nH]1)C(=O)N2` [Indo 5, 3-(1H-benzimidazol-2-methylene)-5-(2-methylphenylaminosulfo)-2-indolone], the IC50 in the test with HepG2 cells came to 5660 nM; in the test with A375 cells it was 1870 nM; in the test with H460 cells, 1070 nM; with L02 cells, 20900 nM; in the test on MHCC97-H cells [1], 1030 nM; in the test with A549 cells it was 2190 nM. Also, the Tumor inhibition rate is 68% with MHCC97-L cells and 61% with MHCC97-H cells [2].
